Legend:
[1] = biological target: binding of p29^GFP vesicles to F-actin; experiment: modified in vitro actin binding assay with p29^GFP-labeled vesicles; assay type: biochemical, rat; details: 0-100 nM, 20 minutes at 37° C.; read-out: EC50, increase in quantity of p29^GFP bound to F-actin
Method: To define the specific region(s) of the myosin V tail that interact with the p29 vesicle, a series of deletion mutations were created based on the dominant negative effect of exogenous myosin V tail on p29 vesicle binding. Competition analysis of the myosin V deletion mutations on T4-dependent binding of p29 vesicles to F-actin was performed using a modified in vitro assay in which a GFP-tagged p29 fusion protein (p29^GFP) replaced the radioaffinity labeled native p29 (Farwell et al., 1990, J. Biol. Chem. 265:18546-18553; Farwell et al., 1993, J. Biol. Chem. 268:5055-5062). This allowed direct evaluation of the binding of fluorescent vesicles to F-actin without affinity radiolabeling of the p29 and subsequent SDS-PAGE analysis.
Specific fluorescence at 510 nm (excitation, 488 nm) was then determined in the resuspended Triton-insoluble pellets.
To determine if the myosin V tail could be captured by the p29^GFP vesicle, an exogenous myosin V^tail was introduced into astrocytes constitutively expressing p29^GFP by infection with Ad5-ΔMyo V^tail virus particles and examined the effects of T4 on the binding of the myosin V^tail to immunopurified p29^GFP vesicles. Astrocytes expressing p29^GFP were grown in serum-free media and treated for 16 hours with 1 mM bt2cAMP and 100 nM hydrocortisone. A separate pool of astrocytes was treated in serum-free media supplemented with 10 μM retinoic acid. Cells were collected by scraping, and lysed by two freeze-thaw cycles. […] Triton-soluble (vesicle) and Triton-insoluble (F-actin) fractions were separated by microflige centrifugation. Triton pellets were resuspended in 300 μl of PBS and fluorescence at 510 nm (excitation 488 nm) determined and relative fluorescence was reported as arbitrary units. Cells were treated with 10 nM T4 for twenty minutes and a Triton-soluble supernatant was prepared. Vesicles containing the p29^GFP were immunoprecipitated by anti-GFP IgG (2 μg/ml) and protein in the immunoprecipitates were resolved by SDS-PAGE. Immunoblot analysis of vesicle-associated myosin V was performed using the anti-myosin V antibody directed against the C-terminus.
The quantity of each mutant protein synthesized was determined by [^35 S]-methionine incorporation. Astrocytes expressing p29^GFP were grown in serum-free media and treated for 16 hours with […] bt2cAMP and 100 nM hydrocortisone. p29^GFP V-lysate and F-lysate were prepared as described herein. 100 μg aliquots of p29^GFP V-lysate and F-lysate were pre-incubated, in triplicate, for 20 minutes at 37° C. in the presence of individual Δ myosin V mutant proteins (˜2-3 pmol polypeptide/50 μl mixture) were added to the actin-binding assay and pre-incubated for 20 minutes at 37° C. T4 (10 nM) was then added, the mixtures incubated for 20 minutes at 37° C., and F-actin bound, fluorescent p29^GFP vesicles were then isolated in the Triton-insoluble pellet.
V lysates prepared from astrocytes over-expressing p29^GFP were pre-incubated for 30 minutes at room temperature with antisera raised against ΔTRα2, ΔTRα1, the C-terminus of MyoV (encoded by MyoV^tail, FIG. 5), the coiled-coil region of MyoV (encoded by MyoV^coil-coil, FIG. 5) and GFP (green fluorescent protein). T4 (10 nM) and actin fiber-containing F-lysate was then added, the mixtures incubated at 37° C. for 20 minutes, and the Triton-insoluble fraction isolated by centrifugation.

[2] = test system: cerebellar granule neurons; experiment: FM1-43 synaptic vesicle recycling in cultured cerebellar granule neurons, spontaneous activity; assay type: cell-based, rat
Method: All of the major components of hormone-induced vesicle trafficking in astrocytes (actin fibers, myosin V (also referred to as myosin 5a and myo 5a), and recycling vesicles) are also present in nerve terminals. Therefore, the effects of thyroid hormone on synaptic vesicle recycling in the presynaptic nerve terminal were examined using myo5a-dependent synaptic vesicle (SV) recycling in cultured cerebellar granule neurons. In these experiments, rat granule neurons were grown on laminin-coated coverslips in the absence or presence of hormone and synaptic vesicle recycling was examined using FM1-43 (a styryl dye used in the art for studying endocytosis and exocytosis, e.g., in synaptic vesicle uptake and release assays; Molecular Probes, Inc. Eugene, Oreg.). […] In contrast, granule neurons grown in thyroid hormone supplemented medium released only 15-20% of the FM1-43 after six minutes of incubation and the hormone specificity of retention of FM1-43 in the “reserve pool” was identical to that determined for myo5a-dependent, endocytosis of p29 vesicles (D2p29 vesicles) in astrocytes.
Cerebellar granule neurons were examined because thyroid hormone has a profound influence on granule neuron viability during cerebellar maturation (Xiao and Nikodem, 1998, Front. Biosci. 3: A52-57; Rabie et al., 1980, Brain Res. 190:409-414), and because of the effects of the loss of myo5a on synaptic vesicle homeostasis (Bridgman, 1999, J. Cell Biol. 146:1045-1060). […]
Experiments were conducted to determine whether synaptic vesicle endocytosis could be altered by the hormone status of the neuron. […] The dye was then removed and the number, intensity and retention of the FM1-43 in random nerve terminals immediately after washing and after six minutes of autonomous activity were analyzed in paraformaldehyde fixed cells (Ryan, 1999, J. Neurosci.: 19:1317-1323). Fluorescence in single nerve terminals (ROI=7×7 pixels) and in an adjacent segment of the neuronal fiber were measured for 40-45 individual nerve terminals. […] Fluorescence intensity was determined using NIH Image software. The total FM1-43 fluorescence in a nerve terminal represents the sum of the dye-loaded synaptic vesicles in the readily releasable and the reserve pools.
By allowing recurrent activity, the FM1-43 filled synaptic vesicles present in the readily releasable pool will be progressively depleted. […] By measuring the total FM1-43 content in random nerve terminals immediately after loading and at 30 second intervals for six minutes of spontaneous activity, the influence of hormones on the distribution of recycling synaptic vesicles between the readily releasable and reserve pools was estimated.

N[C@@H](Cc1cc(I)c(Oc2cc(I)c(O)c(I)c2)c(I)c1)C(=O)O [T4, thyroxine]
EC50 [1]: ~0.5 nM
endocytosed FM1-43 retained ([2]; acute treatment, after three minutes of spontaneous stimulation): > 90%
uptake of FM1-43 ([2]; immediately after loading): No differences
